“And” between values parts separate entries of the source, which are not always exact repeats. Equal entries are not always repeated.
Target: SARS-CoV-2 Mpro (Severe acute respiratory syndrome coronavirus 2, UniProt P0DTD1)
Assay: biochemical
Details: for IC50: IC50, enzyme 100 nM, substrate 20 μM, 10 min preincubation, pH 6.5; for inhibition at 20 µM: read-out: % inhibition at 20 μM; for fold less active than compound 13: IC50 compared with compound 13

SMILES | IC50 | inhibition at 20 µM [%] | other results
CC1OC1C(=O)N(c1ccc(C(C)(C)C)cc1)C(C(=O)NC(C)(C)C)c1cccnc1 [(R, R, S)- and (S, S, R)-39, N-(4-(tert-Butyl)phenyl)-N-(2-(tert-butylamino)-2-oxo-1-(pyridin-3-yl)ethyl)-3-methyloxirane-2-carboxamide] | 5.32 ± 0.64 µM | – | –
CC(C)(C)NC(=O)C(c1cccnc1)N(C(=O)CCl)c1cccc(NC(=O)C(Cl)Cl)c1 (centres unmarked) [Compound 19, N-(tert-Butyl)-2-(2-chloro-N-(3-(2,2-dichloroacetamido)phenyl)acetamido)-2-(pyridin-3-yl)acetamide] | 2.2 ± 0.51 µM | – | –
CC1(C(=O)N(c2ccc(C(C)(C)C)cc2)C(C(=O)NC2CCCCC2)c2cccnc2)CO1 (centres unmarked) [Compound 37, N-(4-(tert-Butyl)phenyl)-N-(2-(cyclohexylamino)-2-oxo-1-(pyridin-3-yl)ethyl)-2-methyloxirane-2-carboxamide] | – | 28 | activity reduction vs. compound 30 (compared with more active diastereomer of 30): > 25 fold
C=CC(=O)Nc1cccc(N(C(=O)c2ccco2)C(C(=O)NCc2ccccc2)c2cccnc2)c1 (centres unmarked) [Compound 10, N-(3-Acrylamidophenyl)-N-(2-(benzylamino)-2-oxo-1-(pyridin-3-yl)ethyl)furan-2-carboxamide] | – | 5 | –
O=C(Nc1ccc(N(C(=O)c2ccco2)C(C(=O)NCc2ccccc2)c2cccnc2)cc1)C(Cl)Cl (centres unmarked) [Compound 6, N-(2-(Benzylamino)-2-oxo-1-(pyridin-3-yl)ethyl)-N-(4-(2,2-dichloroacetamido)phenyl)furan-2-carboxamide] | – | 41 | –
CC(C)(C)c1ccc(N(C(=O)CCl)C(C(=O)NC2CCCCC2)c2cccnc2)cc1 (centres unmarked) [Compound 26, N-(4-(tert-Butyl)phenyl)-2-chloro-N-(2-(cyclohexylamino)-2-oxo-1-(pyridin-3-yl)ethyl)acetamide] | 0.49 ± 0.22 µM | – | –
CC(C)(C)NC(=O)C(c1cccnc1)N(C(=O)CCl)c1ccc(NC(=O)C(Cl)Cl)cc1 (centres unmarked) [Compound 16, N-(tert-Butyl)-2-(2-chloro-N-(4-(2,2-dichloroacetamido)phenyl)acetamido)-2-(pyridin-3-yl)acetamide] | 3.6 ± 0.19 µM | – | fold less active than compound 13: ~ 5 ×
CC(C)(C)NC(=O)C(c1cccnc1)N(C(=O)C1CO1)c1ccc(C(C)(C)C)cc1 [(R, R)- and (S, S)-38, N-(4-(tert-Butyl)phenyl)-N-(2-(tert-butylamino)-2-oxo-1-(pyridin-3-yl)ethyl)oxirane-2-carboxamide] | – | 21 | –
Nc1ccc(N(C(=O)c2ccco2)C(C(=O)NCc2ccccc2)c2cccnc2)cc1 (centres unmarked) [Compound 11, N-(4-Aminophenyl)-N-(2-(benzylamino)-2-oxo-1-(pyridin-3-yl)ethyl)furan-2-carboxamide] | – | 0 | –
CC(C)(C)NC(=O)C(c1cccnc1)N(C(=O)C1CO1)c1ccc(C(C)(C)C)cc1 [(R, S)- and (S, R)-38, N-(4-(tert-Butyl)phenyl)-N-(2-(tert-butylamino)-2-oxo-1-(pyridin-3-yl)ethyl)oxirane-2-carboxamide] | 1.2 µM and 1.24 µM | – | –
C=Cc1ccc(N(C(=O)c2ccco2)C(C(=O)NCc2ccccc2)c2cccnc2)cc1 (centres unmarked) [Compound 3, N-(2-(Benzylamino)-2-oxo-1-(pyridin-3-yl)ethyl)-N-(4-vinylphenyl)furan-2-carboxamide] | – | 26 | –
CC(C)(C)NC(=O)C(c1cccnc1)N(C(=O)C1OC1(C)C)c1ccc(C(C)(C)C)cc1 (centres unmarked) [Compound 40, N-(4-(tert-Butyl)phenyl)-N-(2-(tert-butylamino)-2-oxo-1-(pyridin-3-yl)ethyl)-3,3-dimethyloxirane-2-carboxamide] | – | 31 | –
CC(C)(C)c1ccc(N(C(=O)CCl)C(C(=O)NCc2ccccc2)c2cccnc2)cc1 (centres unmarked) [Compound 23, N-Benzyl-2-(N-(4-(tert-butyl)phenyl)-2-chloroacetamido)-2-(pyridin-3-yl)acetamide] | – | 41 | –
CC(C)(C)c1ccc(N(C(=O)C2CO2)C(C(=O)NCc2ccccc2)c2cccnc2)cc1 [(R, S)- and (S, R)-42, N-(2-(Benzylamino)-2-oxo-1-(pyridin-3-yl)ethyl)-N-(4-(tert-butyl)phenyl)oxirane-2-carboxamide] | 1.6 ± 0.32 µM | – | –
CC(C)(C)c1ccc(N(C(=O)CC#N)C(C(=O)NC2CCCCC2)c2cccnc2)cc1 (centres unmarked) [Compound 34, N-(4-(tert-Butyl)phenyl)-2-cyano-N-(2-(cyclohexylamino)-2-oxo-1-(pyridin-3-yl)ethyl)acetamide] | – | 28 | –
CC(C)(C)NC(=O)C(c1cccnc1)N(C(=O)CCl)c1ccc(N)cc1 (centres unmarked) [Compound 20, N-(4-Aminophenyl)-N-(2-(tert-butylamino)-2-oxo-1-(pyridin-3-yl)ethyl)-2-chloroacetamide] | – | 12 | –
CC(C)(C)NC(=O)C(c1cccnc1)N(C(=O)CCl)c1cccc(N)c1 (centres unmarked) [Compound 21, N-(3-Aminophenyl)-N-(2-(tert-butylamino)-2-oxo-1-(pyridin-3-yl)ethyl)-2-chloroacetamide] | – | 33 | –
COc1ccc(N(C(=O)CCl)C(C(=O)NC(C)(C)C)c2cccnc2)cc1 (centres unmarked) [Compound 22, N-(tert-Butyl)-2-(2-chloro-N-(4-methoxyphenyl)acetamido)-2-(pyridin-3-yl)acetamide] | 1.6 µM and 1.61 µM | – | –

SMILES | IC50 | inhibition at 20 µM [%] | other results
CC(C)(C)NC(=O)C(c1cccnc1)N(C(=O)CCl)c1ccc(NC(=O)CCl)cc1 (centres unmarked) [Compound 15, N-(tert-Butyl)-2-(2-chloro-N-(4-(2-chloroacetamido)phenyl)acetamido)-2-(pyridin-3-yl)acetamide] | 3.2 ± 0.79 µM | – | fold less active than compound 13: ~ 5 ×
CC(C)(C)NC(=O)C(c1cccnc1)N(C(=O)CCl)c1cccc(NC(=O)CCl)c1 (centres unmarked) [Compound 18, N-(tert-Butyl)-2-(2-chloro-N-(3-(2-chloroacetamido)phenyl)acetamido)-2-(pyridin-3-yl)acetamide] | 3.6 ± 0.6 µM | – | –
CC(C)(C)NC(=O)C(c1cccnc1)N(C(=O)CO)c1ccc(C(C)(C)C)cc1 (centres unmarked) [Compound 32, N-(tert-Butyl)-2-(N-(4-(tert-butyl)phenyl)-2-hydroxyacetamido)-2-(pyridin-3-yl)acetamide] | – | 21 | –
CC1OC1C(=O)N(c1ccc(C(C)(C)C)cc1)C(C(=O)NC1CCCCC1)c1cccnc1 [(R, R, S)- and (S, S, R)-35, N-(4-(tert-Butyl)phenyl)-N-(2-(cyclohexylamino)-2-oxo-1-(pyridin-3-yl)ethyl)-3-methyloxirane-2-carboxamide] | – | 42 | fold less active than the other (more active) diastereomer (between the two diastereomers of the same compound): ~ 10 ×
CCCCNC(=O)C(c1cccnc1)N(C(=O)CCl)c1ccc(C(C)(C)C)cc1 (centres unmarked) [Compound 24, N-Butyl-2-(N-(4-(tert-butyl)phenyl)-2-chloroacetamido)-2-(pyridin-3-yl)acetamide] | 2.4 ± 0.3 µM | – | –
CC(C)(C)NC(=O)C(c1cccnc1)N(C(=O)c1ccco1)c1ccc(CC2CO2)cc1 (centres unmarked) [Compound 4, N-(2-(tert-Butylamino)-2-oxo-1-(pyridin-3-yl)ethyl)-N-(4-(oxiran-2-ylmethyl)phenyl)furan-2-carboxamide] | – | 10 | –
CC(C)(C)c1ccc(N(C(=O)C2CO2)C(C(=O)NCc2ccccc2)c2cccnc2)cc1 [(R, R)- and (S, S)-42, N-(2-(Benzylamino)-2-oxo-1-(pyridin-3-yl)ethyl)-N-(4-(tert-butyl)phenyl)oxirane-2-carboxamide] | – | 45 | –
CC1OC1C(=O)N(c1ccc(C(C)(C)C)cc1)C(C(=O)NC(C)(C)C)c1cccnc1 [(R, S, R)- and (S, R, S)-39, N-(4-(tert-Butyl)phenyl)-N-(2-(tert-butylamino)-2-oxo-1-(pyridin-3-yl)ethyl)-3-methyloxirane-2-carboxamide] | 4.33 ± 0.32 µM | – | –
CC(C)(C)NC(=O)C(c1cccnc1)N(C(=O)C(=O)Cc1ccccc1)c1ccc(C(C)(C)C)cc1 (centres unmarked) [Compound 31, N-(4-(tert-Butyl)phenyl)-N-(2-(tert-butylamino)-2-oxo-1-(pyridin-3-yl)ethyl)-2-oxo-3-phenylpropanamide] | – | 0 | inhibitory activity against Mpro (in words): inactive
O=C(CCl)Nc1cccc(N(C(=O)c2ccco2)C(C(=O)NCc2ccccc2)c2cccnc2)c1 (centres unmarked) [Compound 8, N-(2-(Benzylamino)-2-oxo-1-(pyridin-3-yl)ethyl)-N-(3-(2-chloroacetamido)phenyl)furan-2-carboxamide] | ~20 µM | 47 | –
Nc1cccc(N(C(=O)c2ccco2)C(C(=O)NCc2ccccc2)c2cccnc2)c1 (centres unmarked) [Compound 12, N-(3-Aminophenyl)-N-(2-(benzylamino)-2-oxo-1-(pyridin-3-yl)ethyl)furan-2-carboxamide] | – | 18 | –
O=C(NCc1ccccc1)C(c1cccnc1)N(C(=O)c1ccco1)c1ccc(C2CO2)cc1 (centres unmarked) [Compound 2, N-(2-(Benzylamino)-2-oxo-1-(pyridin-3-yl)ethyl)-N-(4-(oxiran-2-yl)phenyl)furan-2-carboxamide] | – | 18 | –
O=C(NCc1ccccc1)C(c1cccnc1)N(C(=O)c1ccco1)c1ccc(-c2ccccc2)cc1 (centres unmarked) [Compound 1, N-([1,1’-Biphenyl]-4-yl)-N-(2-(benzylamino)-2-oxo-1-(pyridin-3-yl)ethyl)furan-2-carboxamide] | 0.74 ± 0.07 µM | – | –
CC(C)(C)NC(=O)C(c1cccnc1)N(C(=O)CCl)c1ccc(CC2CO2)cc1 (centres unmarked) [Compound 17, N-(tert-Butyl)-2-(2-chloro-N-(4-(oxiran-2-ylmethyl)phenyl)acetamido)-2-(pyridin-3-yl)acetamide] | 3.6 ± 0.3 µM | – | –
C=CC(=O)Nc1ccc(N(C(=O)c2ccco2)C(C(=O)NCc2ccccc2)c2cccnc2)cc1 (centres unmarked) [Compound 7, N-(4-Acrylamidophenyl)-N-(2-(benzylamino)-2-oxo-1-(pyridin-3-yl)ethyl)furan-2-carboxamide] | – | 22 | –
CC(C)(C)NC(=O)C(c1cccnc1)N(C(=O)C1(C)CO1)c1ccc(C(C)(C)C)cc1 (centres unmarked) [Compound 41, N-(4-(tert-Butyl)phenyl)-N-(2-(tert-butylamino)-2-oxo-1-(pyridin-3-yl)ethyl)-2-methyloxirane-2-carboxamide] | – | 22 | –
O=C(Nc1cccc(N(C(=O)c2ccco2)C(C(=O)NCc2ccccc2)c2cccnc2)c1)C(Cl)Cl (centres unmarked) [Compound 9, N-(2-(Benzylamino)-2-oxo-1-(pyridin-3-yl)ethyl)-N-(3-(2,2-dichloroacetamido)phenyl)furan-2-carboxamide] | – | 20 | –

— PMC10922772 (ACS infectious diseases, 2024)
